Data reported in paper PMC6910946, “Multiple roles of Bet v 1 ligands in allergen stabilization and modulation of endosomal protease activity” (Allergy, 2019).

How the values were obtained:
Bet_v_1 = target: T1, Bet_v_1 (Betula pendula, UniProt P15494); assay: Thermal stability of Bet v 1 by FTIR spectroscopy; assay type: physicochemical, Betula verrucosa; settings: for ΔFTIR: change of Tm of Bet v 1 versus no ligand; for T m FTIR: melting point of Bet v 1 with or without ligand
T1 construct: made in house
T1 sequence (P15494 1-160): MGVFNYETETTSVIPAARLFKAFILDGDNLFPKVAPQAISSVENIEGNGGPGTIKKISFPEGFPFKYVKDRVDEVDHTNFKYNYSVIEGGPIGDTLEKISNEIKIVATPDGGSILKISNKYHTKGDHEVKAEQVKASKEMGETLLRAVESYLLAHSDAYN
From the text: Surface acoustic wave (SAW) technology and NMR spectroscopy were used to observe the interaction of Bet_v_1 with the selected compounds, including determination of the dissociation constant (K d). The influence of ligand binding on the secondary structure elements and the thermal stability of Bet_v_1 was monitored using circular dichroism (CD, JASCO J‐815 spectropolarimeter, Jasco) and Fourier transform infrared (FTIR) spectroscopy (Tensor II FTIR system, Bruker Optics Inc). A detailed description of these methods is available (Appendix [Link], [Link]). […]
Determination of secondary structure elements and thermal stability
The influence of ligand binding on the secondary structure elements and the thermal stability of Bet v 1 was addressed by circular dichroism (CD) and Fourier transform infrared (FTIR) spectroscopy. CD spectroscopy was performed with a JASCO J-815 spectropolarimeter fitted with a PTC-423S Peltier-type single position cell holder (Jasco, Tokyo, Japan) over the wavelength range 190 to 260 nm. For measurement, Bet v 1 with and without ligand was diluted in a 10 mM potassium phosphate buffer to a concentration of 0.1 mg/ml. The thermal stability analysis was recorded at 222 nm. The protein was denatured with a temperature slope of 1° C/min from 20 to 95° C.
FTIR amide 1 and amide 2 spectra of Bet v 1 at concentrations of 1.0-2.0 mg/ml with and without ligand were recorded with an AquaSpec transmission cell adapted to a Tensor II FTIR system (Bruker Optics Inc., Billerica, MA, USA). Measurement was performed at a constant temperature (25° C), controlled by a Haake F8 thermostat (Thermo Electron, Germany) with internal temperature control. For data analysis, OPUS spectroscopy software 6.0 (Bruker Optics Inc., Billerica, MA, USA) was used. The Savitzky-Golay algorithm was applied on […]
vector-normalized amide 1 spectra (25 smoothing points) to obtain the second derivative. For the quantification of secondary structure elements, a Quant2 method of the OPUS software was used. For thermal stability analysis, spectra were recorded with a BioATR II unit (Bruker Optics Inc., Billerica, MA, USA) at 25 to 95° C (dT=2.5K). The determined relative signal change in the amide I band by creating a difference spectrum for each temperature point was used to calculate the melting point (Tm). […]

[1] = system: rat basophil (RBL‐2H3) cells transfected with the human high‐affinity IgE receptor (FcεRI); assay: Mediator release assay (IgE cross-linking, basophil degranulation); assay type: cell-based; settings: sera of six birch pollen allergic subjects
Experimental: The ability of ligand‐loaded Bet_v_1 to induce IgE‐antigen cross‐linking and basophil degranulation was assessed by mediator‐release assays using rat basophil (RBL‐2H3) cells, transfected with the human high‐affinity IgE receptor (FcεRI), as previously described.2, 24 In vitro uptake of labeled Bet_v_1 was performed using CD11c^+ murine bone marrow–derived dendritic cells (BMDCs). The maturation of human monocyte‐derived dendritic cells (moDCs) was analyzed as previously described.2 T‐cell proliferation assays using CD4^+ T‐cell hybridomas were performed as previously described.17 A detailed description of the in vitro assays is available (Appendix [Link], [Link]).
A mediator-release assay was performed to assess the capacity of ligand-loaded Bet v 1 to induce IgE-antigen-crosslinking and basophil degranulation. In this respect, rat basophil (RBL-2H3) cells, transfected with the human high-affinity IgE receptor (FcεRI) were passively sensitized with sera of six subjects allergic to birch pollen (1:10), and used as previously described.^4 For cell-stimulation, Bet v 1 was used at 10-fold dilutions from 1 µg/ml to 0.01 pg/ml. Toxicity of ligands on RBL-2H3 was determined by cell viability assay using MTT (3-(4,5-Dimethylthiazol-2-yl)-2,5-Diphenyltetrazolium Bromide) from Sigma-Aldrich, Inc. (St. Louis, MO, USA). Results were expressed as percentage of total enzyme release of cells lysed with Triton X-100, and the half maximal release (in ng) was determined. Statistics were calculated with a repeated ANOVA followed by a Dunnett post-hoc test of logarithmically transformed half maximal release values (not significant, ns P > 0.05, *P < 0.05, **P < 0.01, and ***P < 0.001).

[2] = target: T2, Bet v 1 / human cathepsin S (Betula pendula, UniProt P15494); assay: Bet v 1 in vitro proteolytic degradation assay with cathepsin S; assay type: biochemical; settings: for processing (degradation) of Bet v 1 by cathepsin S: Bet v 1 20 µM, ligand 100 µM, cathepsin S 1 µM, pH 5.0, 0-24 h, SDS-PAGE
T2 construct: made in house
T2 sequence (P15494 2-160 limits assumed): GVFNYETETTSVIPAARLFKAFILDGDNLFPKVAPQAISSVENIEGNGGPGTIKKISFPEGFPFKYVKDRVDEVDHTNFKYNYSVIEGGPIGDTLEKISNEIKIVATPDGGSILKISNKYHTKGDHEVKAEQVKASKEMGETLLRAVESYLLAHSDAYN
Experimental: (§1) The endolysosomal degradation assay was performed with ligand‐bound (either DOC, PPE1, or Q3OS in 10× molar excess) and Bet_v_1 without ligands (apo‐Bet_v_1) as previously described.21 Recombinant human cathepsin S and human legumain were used in proteolytic degradation assays. Experimental details are described in the Appendix [Link], [Link].
(§2) Recombinant human cathepsin S and human legumain were heterologously expressed and purified as described previously.^9,10 Bet v 1 (20 µM) was incubated with ligand (100 µM) in digestion buffer (0.1 M sodium acetate, pH 5.0, 0.1 M sodium chloride, 5 mM EDTA, and 2 mM DTT) at room temperature prior to the addition of cathepsin S (1 µM) or legumain (2 µM). […] At each time point, the reaction was halted by the addition of E64 (for cathepsin S) or YVAD-CMK (for legumain) at a final concentration of 50 µM, and analyzed by SDS-PAGE. Control reactions without the addition of protease were performed. The generated peptides were analyzed using mass spectrometry.

Bet v 1 / human legumain = target: T3, Bet v 1 / human legumain (Betula pendula, UniProt P15494); assay: Bet v 1 in vitro proteolytic degradation assay with legumain; assay type: biochemical
T3 construct: made in house
T3 sequence (P15494 2-160 limits assumed): T2 sequence (P15494 2-160 limits assumed)
Experimental: as §1, §2

[3] = relative abundance of peptides by mass spectrometry

Row | SMILES | ΔFTIR (Bet_v_1) | T m FTIR (Bet_v_1) [°C] | IgE cross‐linking by Bet v 1‐complexes (RBL assay) [1] | processing (degradation) of Bet v 1 by cathepsin S [2] | processing (degradation) of Bet v 1 by legumain (Bet v 1 / human legumain; Bet v 1 20 µM, ligand 100 µM, legumain 2 µM, pH 5.0, 0-24 h, SDS-PAGE) | Bet v 1 cleavage site frequency with cathepsin S [2, 3] | Bet v 1 cleavage site frequency with legumain (Bet v 1 / human legumain; [3])
1 | C[C@H](CCC(=O)O)[C@H]1CC[C@H]2[C@@H]3CC[C@@H]4C[C@H](O)CC[C@]4(C)[C@H]3C[C@H](O)[C@]12C [DOC, sodium deoxycholate, reference compound] | +3.22 °C | 66.6 | None of the above described readouts was influenced | strongly retarded | strongly retarded |  | 
2 | CCC1C(=O)CC(O)C1/C=C/C(O)CCCCCCCC(=O)O (centres unmarked) [PPE1, E1 phytoprostanes] | +5.93 °C | 69.31 | None of the above described readouts was influenced | strongly retarded |  | preferential cleavage was observed after Phe20, Lys21, and in the C‐terminal region | cleavage frequency after Asn120 and Asp157 strongly increased
3 | O=c1c(O[C@@H]2O[C@H](CO)[C@@H](O)[C@H](O)[C@H]2O[C@@H]2O[C@H](CO)[C@@H](O)[C@H](O)[C@H]2O)c(-c2ccc(O)c(O)c2)oc2cc(O)cc(O)c12 [Q3OS, quercetin 3‐O‐sophoroside] | +1.88 °C | 65.26 | None of the above described readouts was influenced |  |  |  | 
